According to patent US20120190669A1, “OXINDOLE COMPOUNDS” (CYLENE PHARMACEUTICALS, INC., priority 2008, published 2012):

test system: K-562; experiment: Alamar Blue cell proliferation assay, K-562; assay type: cell-based; settings: Homo sapiens, K562, Table 4, read-out: AB: K-562
Description: (§1) A representative cell-proliferation assay protocol using Alamar Blue dye (stored at 4° C., use 20 ul per well) is described hereafter.
(§2) 96-Well Plate Setup and Compound Treatment
(§3) a. Split and trypsinize cells.
(§4) b. Count cells using hemocytometer.
(§5) c. Plate 4,000-5,000 cells per well in 100 μl of medium and seed into a 96-well plate according to the following plate layout. Add cell culture medium only to wells B10 to B12. Wells B1 to B9 have cells but no compound added.
(§6) d. Add 100 μl of 2× drug dilution to each well in a concentration shown in the plate layout above. At the same time, add 100 μl of media into the control wells (wells 1310 to B12). Total volume is 200 μl/well.
(§7) e. Incubate four (4) days at 37° C., 5% CO2 in a humidified incubator.
(§8) f. Add 20 μl Alamar Blue reagent to each well.
(§9) g. Incubate for four (4) hours at 37° C., 5% CO2 in a humidified incubator.
(§10) h. Record fluorescence at an excitation wavelength of 544 nm and emission wavelength of 590 nm using a microplate reader.
(§11) In the assays, cells are cultured with a test compound for approximately four days, the dye is then added to the cells and fluorescence of […] dye is detected after approximately four hours. Different types of cells can be utilized in the assays (e.g., HCT-116 human colorectal carcinoma cells, PC-3 human prostatic cancer cells and MiaPaca human pancreatic carcinoma cells).

IC50 | SMILES
777 nM | C/C(=C1\C(=O)Nc2ccc(Cl)cc21)c1ccc(-c2cccc(C(=O)N3CCCN(C)CC3)c2)o1

test system: MV-4-11; experiment: Alamar Blue cell proliferation assay, MV-4-11; assay type: cell-based; settings: Homo sapiens, MV4-11, Table 4, read-out: AB: MV-4-11
Description: as §1, §2, §3, §4, §5, §6, §7, §8, §9, §10, §11

IC50 | SMILES
178 nM | C/C(=C1\C(=O)Nc2ccc(Cl)cc21)c1ccc(-c2cccc(C(=O)N3CCCN(C)CC3)c2)o1

test system: phospho FLT3; experiment: phospho FLT3 cell-based data; settings: Table 4

IC50 | SMILES
9060 nM | C/C(=C1\C(=O)Nc2ccc(Cl)cc21)c1ccc(-c2cccc(C(=O)N3CCCN(C)CC3)c2)o1

test system: BxPC3; experiment: Alamar Blue cell proliferation assay, BxPC3; assay type: cell-based; settings: Homo sapiens, BXPC-3, Table 4, read-out: AB: BxPC3
Description: as §1, §2, §3, §4, §5, §6, §7, §8, §9, §10, §11

IC50 | SMILES
785 nM | C/C(=C1\C(=O)Nc2ccc(Cl)cc21)c1ccc(-c2cccc(C(=O)N3CCCN(C)CC3)c2)o1

test system: leukemic cells from AML patients; experiment: not given; settings: Fedorov et al., PNAS 104(51); cited from earlier work

SMILES | cell growth and cell death in leukemic cells from AML patients
CN(C)C[C@@H]1CCn2cc(c3ccccc32)C2=C(C(=O)NC2=O)c2cn(c3ccccc23)CCO1 [Ly5333′531] | suppressed cell growth and induced cell death

target: T1, recombinant human FLT-3 (Homo sapiens, UniProt P36888); experiment: FLT-3 kinase activity, cell free in vitro assay; assay type: biochemical; settings: Table 7; 10 uM ATP; read-out: FLT3_RB: IC50
T1 sequence (P36888 27-993): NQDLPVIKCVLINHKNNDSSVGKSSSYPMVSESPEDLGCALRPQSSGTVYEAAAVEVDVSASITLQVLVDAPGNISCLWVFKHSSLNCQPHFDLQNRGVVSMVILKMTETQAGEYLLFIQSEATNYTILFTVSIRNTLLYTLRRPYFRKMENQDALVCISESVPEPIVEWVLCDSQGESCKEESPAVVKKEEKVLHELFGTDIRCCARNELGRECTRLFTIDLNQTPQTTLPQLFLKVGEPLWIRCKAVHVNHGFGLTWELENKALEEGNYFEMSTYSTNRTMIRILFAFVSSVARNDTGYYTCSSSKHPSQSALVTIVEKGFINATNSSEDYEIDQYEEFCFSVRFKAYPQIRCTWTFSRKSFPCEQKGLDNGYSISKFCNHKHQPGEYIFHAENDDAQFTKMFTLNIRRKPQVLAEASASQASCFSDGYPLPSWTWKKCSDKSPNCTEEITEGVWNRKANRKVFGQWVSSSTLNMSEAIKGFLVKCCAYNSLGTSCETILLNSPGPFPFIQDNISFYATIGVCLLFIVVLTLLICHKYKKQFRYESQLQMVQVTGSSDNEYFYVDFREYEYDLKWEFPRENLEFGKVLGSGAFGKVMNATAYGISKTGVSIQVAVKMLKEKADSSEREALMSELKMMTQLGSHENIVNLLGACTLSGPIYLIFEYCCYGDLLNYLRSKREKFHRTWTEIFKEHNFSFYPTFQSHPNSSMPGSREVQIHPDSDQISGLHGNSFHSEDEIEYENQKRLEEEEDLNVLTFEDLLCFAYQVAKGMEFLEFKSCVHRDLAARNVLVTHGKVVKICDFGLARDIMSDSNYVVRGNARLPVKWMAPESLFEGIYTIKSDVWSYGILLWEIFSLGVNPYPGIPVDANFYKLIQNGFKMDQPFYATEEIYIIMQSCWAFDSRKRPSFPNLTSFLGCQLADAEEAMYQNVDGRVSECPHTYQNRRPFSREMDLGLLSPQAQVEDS

IC50 | SMILES
306 nM | O=C1Nc2ccc(F)cc2/C1=C\c1ccc(-c2cccc(C(=O)NC3CC3)c2)o1 [drawing 263]
211 nM | O=C1Nc2ccccc2/C1=C\c1ccc(-c2ccc(Cl)c(C(=O)NCCN3CCCC3)c2)o1 [drawing 261]
147 nM | O=C1Nc2ccc(F)cc2/C1=C\c1ccc(-c2cccc(C(=O)NCc3ccncc3)c2)o1 [drawing 264]
99 nM | O=C1Nc2ccccc2/C1=C\c1ccc(-c2ccc(C(=O)NCCN3CCCC3)cc2)o1
100 nM | Cn1cncc1CNC(=O)c1cccc(-c2ccc(/C=C3/C(=O)Nc4ccc(F)cc43)o2)c1 [drawing 265]

test system: MDAMB-231; experiment: Alamar Blue cell proliferation assay, MDAMB-231; assay type: cell-based; settings: Homo sapiens, MDA-MB-231, Table 4, read-out: AB: MDAMB231
Description: as §1, §2, §3, §4, §5, §6, §7, §8, §9, §10, §11

IC50 | SMILES
816 nM | C/C(=C1\C(=O)Nc2ccc(Cl)cc21)c1ccc(-c2cccc(C(=O)N3CCCN(C)CC3)c2)o1

test system: phospho BAD; experiment: phospho BAD cell-based data; settings: Table 4

IC50 | SMILES
1760 nM | C/C(=C1\C(=O)Nc2ccc(Cl)cc21)c1ccc(-c2cccc(C(=O)N3CCCN(C)CC3)c2)o1
